Columns and labels:
[1] = target: T1, HSP18 (Mycobacterium leprae, UniProt P12809); assay: SPR (Biacore T200, HSP18 immobilized on CM5 chip); assay type: binding
T1 construct: recombinant wild-type M. leprae HSP18

[2] = target: T1, HSP18; assay: SPR (Biacore T200, HSP18 immobilized on CM5 chip); also TNP-ATP displacement and thermal stabilization; assay type: binding
[3] = target: T1, HSP18; assay: fluorescence titration, Scatchard analysis; assay type: binding
[4] = target: the molecule itself; assay: dynamic light scattering; HSP18 0.5 mg/ml in 50 mM phosphate buffer pH 7.5, 25°C, with or without 1 mM ATP; hydrodynamic radius of the oligomers

## Nc1ncnc2c1ncn2[C@@H]1O[C@H](CO[P@](=O)(O)O[P@](=O)(O)O[P@@](=O)(O)S)[C@@H](O)[C@H]1O [ATP-γS]
[1]
  Kd: 330 nM

## Nc1ncnc2c1ncn2[C@@H]1O[C@H](COP(=O)(O)OP(=O)(O)OP(=O)(O)O)[C@@H](O)[C@H]1O [ATP]
[2]
  Kd: 590 nM

## Nc1ncnc2c1ncn2[C@@H]1O[C@H](COP(=O)(O)OP(=O)(O)OP(=O)(O)O)[C@H]2OC3(O[C@H]21)C([N+](=O)[O-])=CC(=[N+]([O-])[O-])C=C3[N+](=O)[O-] (stereo partly shown) [TNP-ATP]
[3]
  Kd: 730 nM

B1: Mycobacterium leprae HSP18 (18 kDa antigen, small heat shock protein) (natural protein, UniProt P12809 1-148, looked up)
chain: MLMRTDPFRELDRFAEQVLGTSARPAVMPMDAWREGEEFVVEFDLPGIKADSLDIDIERNVVTVRAERPGVDPDREMLAAERPRGVFNRQLVLGENLDTERILASYQEGVLKLSIPVAERAKPRKISVDRGNNGHQTINKTAHEIIDA
notes: M. leprae HSP18 (18 kDa antigen), wild-type; source: recombinant wild-type, expressed and purified as described previously [5]; copies: 29
[4]
  binding result: binds
